In the assay the test system is Mycobacterium tuberculosis. In words: Antimicrobial activity against Mycobacterium bovis BCG. In kind it is functional. The conditions noted are these: variant bovis BCG.

Where only a bound is given, the exact number is not on record here.

Broadly, the MIC is the lowest concentration found to suppress growth. High values mean weaker potency, low ones greater potency. `CCOC(=O)c1cc(COc2cc(C(F)(F)F)nc3c(C(F)(F)F)cccc23)on1` showed a minimal inhibitory concentration (MIC) of less than 0.5 µM. For `O=C(O)c1cc(COc2cc(C(F)(F)F)nc3c(C(F)(F)F)cccc23)on1`, the minimum inhibitory concentration (MIC) was more than 128 µM.

Values taken from ChEMBL document CHEMBL1157741, “Synthesis and antituberculosis activity of novel mefloquine-isoxazole carboxylic esters as prodrugs” (Bioorg Med Chem Lett, 2010).
